Laboratory results taken from patent US9079895B2, “Morpholino compounds, uses and methods” (University of Dundee, priority 2012, dated 2015).
“And” between values parts separate entries of the source, which are not always exact repeats. Identical values can stand only once. Like-named read-outs stand apart in the source and are kept apart here.

Columns and labels:
dopamine D4 receptor [1] = target: T1, dopamine D4 receptor (Homo sapiens (Human), UniProt P21917); test: Secondary radioligand binding assay, D4
Method: (§1) 1. Secondary Radioligand Binding Assays
(§2) The detailed experimental protocols for the radioligand and functional receptor assays are available on the NIMH PDSP website at http://pdsp.med.unc.edu/UNC-CH %20Protocol %20Book.pdf.
(§3) Radioligand is diluted to five times the assay concentration (see Table 18) in Standard Binding Buffer. Typically, the assay concentration of radioligand is a value between one half the KD and the KD of a particular radioligand at its target. 50 μl aliquots of radioligand are dispensed into the wells of a 96-well plate containing 100 μl of Standard Binding Buffer. Then, duplicate 50 μl aliquots of the test and reference compound dilutions are added.
(§4) The 250 μl reactions are incubated at room temperature and shielded from light (to prevent photolysis of light-sensitive ligands) for 1.5 hours, then harvested by rapid filtration onto Whatman GF/B glass fiber filters pre-soaked with 0.3% polyethyleneimine using a 96-well Brandel harverster. Four rapid 500 μl washes are performed with chilled Standard Binding Buffer to reduce non-specific binding. Filters are placed in 6 ml scintillation tubes and allowed to dry overnight. The next day, 4 ml of EcoScint scintillation cocktail (National Diagnostics) are added to each tube. The tubes are capped, labeled, and counted by liquid scintillation counting. […] The filter mats are dried, then scintillant is melted onto the filters and the radioactivity retained on the filters is counted in a Microbeta scintillation counter.
(§5) Raw data (dpm) representing total radioligand binding (i.e. specific+non-specific binding) are plotted as a function of the logarithm of the molar concentration of the competitor (i.e. test or reference compound).
(§6) B. Dopamine Receptors: D1, D2, D3, D4, D5 Assay Buffers: Dopamine Binding Buffer (50 mM NaCl, 50 mM HEPES-HCl, 5 mM MgCl2, 0.5 mM EDTA, pH 7.4) Membrane Fraction Source: Transiently or stably transfected cell lines (e.g. HEK293, COS, CHO, NIH3T3)
(§7) The method is carried out in the manner described for the serotonin receptor assay above. Eleven dilutions (5× assay concentration) of the test and reference (see Table 19) compounds are prepared in Dopamine Binding Buffer by serial dilution, as previously described. Radioligand is diluted to five times the assay concentration (see Table 20) in Dopamine Binding Buffer.

dopamine D3 receptor = dopamine D3 receptor (Homo sapiens (Human), UniProt P35462); test: Secondary radioligand binding assay, D3; set-up: key to Ki D3: “—” indicates that a binding interaction was not detected; conditions: average of at least two experiments
Method: as §1, §2, §3, §4, §5, §6, §7

dopamine D2 receptor = dopamine D2 receptor (Homo sapiens (Human), UniProt P14416); test: Functional assay against the dopamine D2 receptor; format: cell-based; conditions: data not shown
Excerpt: as §2

5HT1a receptor = 5HT1a receptor (Homo sapiens (Human), UniProt P08908); test: Secondary radioligand binding assay, 5HT1a; conditions: average of at least two experiments
5HT2a receptor = 5HT2a receptor (Homo sapiens (Human), UniProt P28223); test: Secondary radioligand binding assay, 5HT2a; conditions: average of at least two experiments
dopamine D4 receptor [2] = target: T1, dopamine D4 receptor; test: Functional assay against the dopamine D4 receptor; format: cell-based; conditions: data not shown
Excerpt: as §2

[3] = target: Alpha1D adrenergic receptor (Homo sapiens (Human), UniProt P25100); test: Secondary radioligand binding assay, Alpha1D; conditions: average of at least two experiments
Method: as §1, §2, §5
as §7, with “above, except where described below.” for “above.”, “20)” for “19)”, “the appropriate buffer” for “Dopamine Binding Buffer”, “21)” for “20)”, “the appropriate buffer.” for “Dopamine Binding Buffer.”
The 250 μl reactions are incubated at room temperature and shielded from light (to prevent photolysis of light-sensitive ligands) for 1 hour (for α1 receptors, 40 min for α2 receptors, and 1.5 hours for β receptors), then harvested by rapid filtration onto Whatman GF/B glass fiber filters pre-soaked with 0.3% polyethyleneimine using a 96-well Brandel harverster. Four rapid 500-μl washes are performed with chilled distilled water (for α1 and β receptors) or 0.1% polyethyleneimine (for α2 receptors) to reduce non-specific binding. Filters are placed in 6 ml scintillation tubes and allowed to dry overnight and the samples are treated to obtain data as described above.

5HT2c receptor = 5HT2c receptor (Homo sapiens (Human), UniProt P28335); test: Secondary radioligand binding assay, 5HT2c; conditions: average of at least two experiments
hERG = hERG (Homo sapiens (Human), UniProt Q12809); test: hERG assay (PatchXpress patch clamp); format: cell-based; conditions: read-out: hERG inhibition pEC50 (converted)
Method: 2. hERG Assay hERG activity was assayed by the patch clamp method on a PatchXpress platform and by FluxOR T1+ assays.

[4] = read-out: Ki dopamine D4 (relatively high affinity)
[5] = receptor binding, average of at least two experiments, read-out: Ki D4

Chain of 5HT2a receptor (P28223 whole entry): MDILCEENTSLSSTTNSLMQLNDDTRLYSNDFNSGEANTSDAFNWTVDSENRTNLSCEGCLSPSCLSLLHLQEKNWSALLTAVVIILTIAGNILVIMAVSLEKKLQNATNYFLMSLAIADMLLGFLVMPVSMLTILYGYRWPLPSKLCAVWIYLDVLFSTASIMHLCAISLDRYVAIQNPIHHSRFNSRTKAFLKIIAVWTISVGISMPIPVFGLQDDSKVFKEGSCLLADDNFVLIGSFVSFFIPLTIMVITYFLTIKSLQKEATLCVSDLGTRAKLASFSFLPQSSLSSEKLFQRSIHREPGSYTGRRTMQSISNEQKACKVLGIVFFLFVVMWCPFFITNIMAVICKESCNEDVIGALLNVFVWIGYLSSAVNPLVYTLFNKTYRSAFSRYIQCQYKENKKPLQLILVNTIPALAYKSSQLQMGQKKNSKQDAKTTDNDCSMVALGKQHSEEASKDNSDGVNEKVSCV
Chain of 5HT1a receptor (P08908 whole entry): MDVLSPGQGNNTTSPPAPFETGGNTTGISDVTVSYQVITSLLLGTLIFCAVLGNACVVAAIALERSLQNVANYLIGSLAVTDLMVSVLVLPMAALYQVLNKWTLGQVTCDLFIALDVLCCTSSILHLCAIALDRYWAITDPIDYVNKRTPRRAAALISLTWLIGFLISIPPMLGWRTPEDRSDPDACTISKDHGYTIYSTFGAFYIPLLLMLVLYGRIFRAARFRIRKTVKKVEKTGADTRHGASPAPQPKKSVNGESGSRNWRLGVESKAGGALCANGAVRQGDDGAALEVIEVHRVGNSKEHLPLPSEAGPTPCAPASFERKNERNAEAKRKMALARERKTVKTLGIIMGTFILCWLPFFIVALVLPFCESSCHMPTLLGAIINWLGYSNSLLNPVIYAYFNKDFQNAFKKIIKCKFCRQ
T1 sequence (P21917 whole entry, species assumed): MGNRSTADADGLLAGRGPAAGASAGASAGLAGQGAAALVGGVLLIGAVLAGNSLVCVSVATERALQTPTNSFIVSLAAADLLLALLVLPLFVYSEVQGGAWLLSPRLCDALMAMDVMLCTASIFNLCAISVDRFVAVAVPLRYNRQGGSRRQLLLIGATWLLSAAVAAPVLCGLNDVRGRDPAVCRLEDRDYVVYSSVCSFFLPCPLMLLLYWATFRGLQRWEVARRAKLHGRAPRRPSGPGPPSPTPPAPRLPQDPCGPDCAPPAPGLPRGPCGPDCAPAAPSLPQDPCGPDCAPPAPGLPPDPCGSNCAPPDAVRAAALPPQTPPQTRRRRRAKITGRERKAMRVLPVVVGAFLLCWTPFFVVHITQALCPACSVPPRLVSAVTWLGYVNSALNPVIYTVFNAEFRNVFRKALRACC
Chain of 5HT2c receptor (P28335 33-458): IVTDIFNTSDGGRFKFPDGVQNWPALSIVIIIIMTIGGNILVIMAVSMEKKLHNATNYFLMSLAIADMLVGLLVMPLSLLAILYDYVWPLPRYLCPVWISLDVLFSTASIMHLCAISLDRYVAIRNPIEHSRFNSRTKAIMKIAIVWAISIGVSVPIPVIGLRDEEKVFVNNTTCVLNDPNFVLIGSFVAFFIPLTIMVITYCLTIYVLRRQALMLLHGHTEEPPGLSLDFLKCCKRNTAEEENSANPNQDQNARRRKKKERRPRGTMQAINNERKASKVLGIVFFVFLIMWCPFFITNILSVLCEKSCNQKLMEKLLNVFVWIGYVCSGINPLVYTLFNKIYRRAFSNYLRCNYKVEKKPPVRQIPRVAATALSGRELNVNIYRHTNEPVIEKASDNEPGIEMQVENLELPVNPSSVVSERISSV
Chain of dopamine D3 receptor (P35462 whole entry, species assumed): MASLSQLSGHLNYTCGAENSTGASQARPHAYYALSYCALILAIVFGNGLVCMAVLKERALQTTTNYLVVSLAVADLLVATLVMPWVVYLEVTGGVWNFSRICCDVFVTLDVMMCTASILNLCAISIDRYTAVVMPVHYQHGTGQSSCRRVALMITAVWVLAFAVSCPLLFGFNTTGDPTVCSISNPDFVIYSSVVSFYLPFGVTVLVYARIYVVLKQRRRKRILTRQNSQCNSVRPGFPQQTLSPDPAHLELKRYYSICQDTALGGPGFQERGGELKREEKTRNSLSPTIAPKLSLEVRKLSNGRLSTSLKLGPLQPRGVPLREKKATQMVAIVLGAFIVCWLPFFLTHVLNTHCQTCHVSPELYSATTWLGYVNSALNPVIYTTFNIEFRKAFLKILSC
Chain of Alpha1D adrenergic receptor (P25100 whole entry): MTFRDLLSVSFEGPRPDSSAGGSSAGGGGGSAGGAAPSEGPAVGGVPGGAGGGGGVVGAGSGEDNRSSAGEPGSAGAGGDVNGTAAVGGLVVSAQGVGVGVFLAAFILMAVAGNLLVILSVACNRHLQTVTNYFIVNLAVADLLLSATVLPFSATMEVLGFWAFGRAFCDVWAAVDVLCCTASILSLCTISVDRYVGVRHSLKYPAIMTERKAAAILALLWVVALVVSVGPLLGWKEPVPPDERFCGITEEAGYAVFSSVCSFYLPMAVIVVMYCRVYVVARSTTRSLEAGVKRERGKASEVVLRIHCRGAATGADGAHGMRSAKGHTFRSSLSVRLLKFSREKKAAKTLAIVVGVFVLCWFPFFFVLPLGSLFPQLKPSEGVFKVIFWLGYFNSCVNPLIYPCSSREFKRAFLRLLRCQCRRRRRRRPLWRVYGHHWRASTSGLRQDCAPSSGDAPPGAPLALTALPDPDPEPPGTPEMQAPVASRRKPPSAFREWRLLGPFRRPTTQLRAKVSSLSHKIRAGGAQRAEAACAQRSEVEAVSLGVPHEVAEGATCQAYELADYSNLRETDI
Chain of dopamine D2 receptor (P14416 whole entry, species assumed): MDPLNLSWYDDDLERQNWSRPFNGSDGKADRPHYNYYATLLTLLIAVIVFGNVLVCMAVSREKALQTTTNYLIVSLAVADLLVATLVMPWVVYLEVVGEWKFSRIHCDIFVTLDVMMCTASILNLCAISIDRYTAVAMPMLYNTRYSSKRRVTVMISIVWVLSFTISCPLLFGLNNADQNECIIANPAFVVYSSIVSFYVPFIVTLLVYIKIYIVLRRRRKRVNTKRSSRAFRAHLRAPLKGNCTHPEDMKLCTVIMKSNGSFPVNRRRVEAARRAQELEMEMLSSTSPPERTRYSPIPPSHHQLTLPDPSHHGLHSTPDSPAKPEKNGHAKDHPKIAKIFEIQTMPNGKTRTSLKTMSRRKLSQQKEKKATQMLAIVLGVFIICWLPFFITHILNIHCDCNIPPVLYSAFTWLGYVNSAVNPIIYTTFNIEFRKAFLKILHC
Chain of hERG (Q12809 whole entry): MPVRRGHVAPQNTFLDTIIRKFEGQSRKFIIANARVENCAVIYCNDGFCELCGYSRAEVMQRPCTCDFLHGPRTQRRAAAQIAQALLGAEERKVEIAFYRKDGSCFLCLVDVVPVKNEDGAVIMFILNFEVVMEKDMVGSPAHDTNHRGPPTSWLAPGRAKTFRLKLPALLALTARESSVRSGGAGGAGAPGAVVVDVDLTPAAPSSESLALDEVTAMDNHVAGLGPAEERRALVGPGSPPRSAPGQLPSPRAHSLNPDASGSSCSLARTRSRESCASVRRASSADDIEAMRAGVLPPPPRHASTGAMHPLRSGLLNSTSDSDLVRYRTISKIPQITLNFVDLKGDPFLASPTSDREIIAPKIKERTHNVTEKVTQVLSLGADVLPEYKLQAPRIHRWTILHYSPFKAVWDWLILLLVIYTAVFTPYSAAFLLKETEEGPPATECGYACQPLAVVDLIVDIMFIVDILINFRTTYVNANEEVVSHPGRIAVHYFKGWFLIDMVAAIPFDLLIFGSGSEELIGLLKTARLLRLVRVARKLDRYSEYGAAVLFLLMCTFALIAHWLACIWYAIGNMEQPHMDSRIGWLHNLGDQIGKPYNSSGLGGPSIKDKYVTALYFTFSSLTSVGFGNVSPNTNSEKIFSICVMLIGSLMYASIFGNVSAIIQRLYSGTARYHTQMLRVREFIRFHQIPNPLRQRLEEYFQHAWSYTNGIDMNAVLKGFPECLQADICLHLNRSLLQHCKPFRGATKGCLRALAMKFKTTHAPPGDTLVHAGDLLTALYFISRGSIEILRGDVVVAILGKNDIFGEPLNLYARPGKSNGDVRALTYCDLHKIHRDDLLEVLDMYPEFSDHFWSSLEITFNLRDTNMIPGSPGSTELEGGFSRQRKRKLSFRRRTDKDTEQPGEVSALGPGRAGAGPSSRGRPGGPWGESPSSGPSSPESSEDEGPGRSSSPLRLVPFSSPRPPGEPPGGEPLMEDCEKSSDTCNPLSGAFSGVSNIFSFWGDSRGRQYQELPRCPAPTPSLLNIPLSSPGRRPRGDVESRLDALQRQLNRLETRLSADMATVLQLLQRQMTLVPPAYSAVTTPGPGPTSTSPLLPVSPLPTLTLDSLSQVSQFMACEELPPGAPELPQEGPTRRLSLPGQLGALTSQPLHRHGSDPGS

| Ki D3 (dopamine D3 receptor) | Ki (5HT1a receptor) | SMILES | Ki (dopamine D4 receptor [1]; [5]) | Ki (5HT2a receptor) | also measured |
| --- | --- | --- | --- | --- | --- |
| — | 592 nM | Cc1ncccc1OC[C@@H]1CN(CC(=O)N2c3ccccc3CC2C)CCO1.Cl (some centres unmarked) [Compound 60] |  |  |  |
| — | 7540 nM | Cc1ccccc1OC[C@H]1CN(CC(=O)N2c3ccccc3CC2C)CCO1 (some centres unmarked) [Compound 66] |  |  | Ki [3]: > 10000 nM |
| — |  | Cc1ccnc(OC[C@H]2CN(CCN3CCc4ccccc43)CCO2)c1 [Compound 17r, (R)-4-(2-(Indolin-1-yl)ethyl)-2-(((4-methylpyridin-2-yl)oxy)methyl)morpholine] | 1930 nM |  |  |
| — |  | Clc1cccc(OC[C@H]2CN(CCN3CCc4ccccc43)CCO2)c1 [Compound 23r, (R)-2-((3-Chlorophenoxy)methyl)-4-(2-(indolin-1-yl)ethyl)morpholine] |  | 2670 nM |  |
| — | 6590 nM | Cc1ncccc1OC[C@H]1CN(CC(=O)N2c3ccccc3CC2C)CCO1 (some centres unmarked) [Compound 62] |  |  |  |
| — |  | Cc1ccnc(OC[C@H]2CN(CC(=O)N3CCc4ccccc43)CCO2)c1 [Compound 16r] |  |  |  |
| — | 540 nM | Cc1ncccc1OC[C@@H]1CN(CC(=O)N2c3ccccc3C[C@H]2C)CCO1 [Compound 61] |  |  | Ki [3]: > 10000 nM |
|  | 2880 nM | c1ccc(OC[C@H]2CN(CCN3CCc4ccccc43)CCO2)nc1 [Compound 15r, (R)-4-(2-(Indolin-1-yl)ethyl)-2-((pyridin-2-yloxy)methyl)morpholine] | 814 nM |  | Ki (dopamine D3 receptor): > 10000 nM |
| — | > 10000 nM | CC1Cc2ccccc2N1C(=O)CN1CCO[C@@H](COc2ccncc2)C1 (some centres unmarked) [Compound 68] |  |  |  |
|  |  | Cc1ncccc1OC[C@H]1CN(CCN2CCc3ccccc32)CCO1 [Compound 26r, (R)-4-(2-(Indolin-1-yl)ethyl)-2-(((2-methylpyridin-3-yl)oxy)methyl)morpholine] |  |  | Ki (dopamine D3 receptor): > 10000 nM |
| — | 6370 nM | Cc1ccnc(OC[C@H]2CN(CC(=O)N3c4ccccc4CC3C)CCO2)c1 (some centres unmarked) [Compound 70] |  |  | Ki (5HT2c receptor): 6370 nM |
| — | > 10000 nM | C[C@@H]1Cc2ccccc2N1C(=O)CN1CCO[C@@H](COc2ccncc2)C1 [Compound 67] |  |  |  |
| — | > 10000 nM | CC1Cc2ccccc2N1C(=O)CN1CCO[C@@H](COc2ccccn2)C1 (some centres unmarked) [Compound 69] |  |  |  |
|  |  | Clc1cccc(OC[C@@H]2CN(CCN3CCc4ccccc43)CCO2)c1 [Compound 23s, (S)-2-((3-chlorophenoxy)methyl)-4-(2-(indolin-1-yl)ethyl)morpholine] |  | 1280 nM | Ki (5HT2c receptor): 3390 nM; Ki [3]: 4180 nM; Ki (dopamine D3 receptor): 6640 nM |
| — | 5020 nM | Cc1ncccc1OC[C@H]1CN(CC(=O)N2c3ccccc3C[C@H]2C)CCO1 [Compound 63] |  |  |  |
| — |  | Clc1cncc(OC[C@H]2CN(CCN3CCc4ccccc43)CCO2)c1 [Compound 27r, (R)-2-(((5-Chloropyridin-3-yl)oxy)methyl)-4-(2-(indolin-1-yl)ethyl)morpholine] |  |  |  |

| SMILES | Ki D3 (dopamine D3 receptor) | Ki (5HT1a receptor) | Ki (dopamine D4 receptor [1]; [5]) | Ki (5HT2a receptor) | also measured |
| --- | --- | --- | --- | --- | --- |
| Cc1ncccc1OC[C@@H]1CN(CCN2CCc3ccccc32)CCO1 [Compound 26s, (S)-4-(2-(Indolin-1-yl)ethyl)-2-(((2-methylpyridin-3-yl)oxy)methyl)morpholine] | — |  | < 1000 nM and 435 nM |  | Ki (dopamine D4 receptor [1]; [4]): < 1000 nM |
| O=C(CN1CCO[C@@H](COc2cccc(Cl)c2)C1)N1CCc2ccccc21 [Compound 22r, (R)-2-(2-((3-chlorophenoxy)methyl)morpholino)-1-(indolin-1-yl)ethanone] | — | 384 nM | 536 nM | 2070 nM | function at the dopamine D2 receptor (dopamine D2 receptor): inverse agonists; function at the dopamine D4 receptor (dopamine D4 receptor [2]): inverse agonists |
| c1cncc(OC[C@H]2CN(CCN3CCc4ccccc43)CCO2)c1 [Compound 21r, (R)-4-(2-(Indolin-1-yl)ethyl)-2-((pyridin-3-yloxy)methyl)morpholine] | — |  | 2410 nM | 3580 nM |  |
| CC1Cc2ccccc2N1C(=O)CN1CCO[C@H](COc2cccc(Cl)c2)C1 (some centres unmarked) [Compound 64] | — | 644 nM | 2390 nM | 4540 nM | Ki [3]: > 10000 nM |
| O=C(CN1CCO[C@H](COc2cccnc2)C1)N1CCc2ccccc21 [Compound 20s, (S)-1-(Indolin-1-yl)-2-(2-((pyridin-3-yloxy)methyl)morpholino)ethanone] | — |  |  |  |  |
| CC1Cc2ccccc2N1C(=O)CN1CCO[C@@H](COc2cccc(Cl)c2)C1 (some centres unmarked) [Compound 65] | — | > 10000 nM |  | 1810 nM | Ki [3]: > 10000 nM |
| Cc1ccc(OC[C@H]2CN(CCN3CCc4ccccc43)CCO2)cn1 [Compound 28r, (R)-4-(2-(Indolin-1-yl)ethyl)-2-(((6-methylpyridin-3-yl)oxy)methyl)morpholine] | — |  |  | 1480 nM |  |
| Cc1ccnc(C)c1OC[C@H]1CN(CCN2CCc3ccccc32)CCO1 [Compound 29r, (R)-2-(((2,4-Dimethylpyridin-3-yl)oxy)methyl)-4-(2-(indolin-1-yl)ethyl)morpholine] | — |  | 4950 nM | > 10000 nM |  |
| c1ccc(OC[C@@H]2CN(CCN3CCc4ccccc43)CCO2)cc1 [Compound 19s, (S)-4-(2-(Indolin-1-yl)ethyl)-2-(phenoxymethyl)morpholine] |  | 0.6 nM | < 1000 nM and 132 nM | 817 nM | Ki (5HT2c receptor): 6740 nM; Ki (dopamine D3 receptor): 2830 nM |
| c1cncc(OC[C@@H]2CN(CCN3CCc4ccccc43)CCO2)c1 [Compound 21s, (S)-4-(2-(Indolin-1-yl)ethyl)-2-((pyridin-3-yloxy)methyl)morpholine] |  | 10000 nM | 182 nM | 3540 nM | function at the dopamine D2 receptor (dopamine D2 receptor): inverse agonists; function at the dopamine D4 receptor (dopamine D4 receptor [2]): inverse agonists; Ki (dopamine D3 receptor): 8360 nM; EC50 (hERG): 1510 nM |
| O=C(CN1CCO[C@H](COc2ccccc2)C1)N1CCc2ccccc21 [Compound 18s, (S)-1-(Indolin-1-yl)-2-(2-(phenoxymethyl)morpholino)ethanone] | — |  | 5530 nM |  |  |
| COc1cccc(OC[C@@H]2CN(CCN3CCc4ccccc43)CCO2)c1 [Compound 25s, (S)-4-(2-(Indolin-1-yl)ethyl)-2-((3-methoxyphenoxy)methyl)morpholine] |  | 174 nM |  | 1400 nM | Ki (5HT2c receptor): 3760 nM; Ki (dopamine D3 receptor): 8290 nM |
| Cc1ccc(OC[C@@H]2CN(CCN3CCc4ccccc43)CCO2)cn1 [Compound 28s, (S)-4-(2-(Indolin-1-yl)ethyl)-2-(((6-methylpyridin-3-yl)oxy)methyl)morpholine] | — |  | < 1000 nM |  | Ki (dopamine D4 receptor [1]; [4]): < 1000 nM |
| O=C(CN1CCO[C@@H](COc2ccccn2)C1)N1CCc2ccccc21 [Compound 14r, (R)-1-(Indolin-1-yl)-2-(2-((pyridin-2-yloxy)methyl)morpholino)ethanone] | — |  |  |  |  |
| O=C(CN1CCO[C@@H](COc2cccnc2)C1)N1CCc2ccccc21 [Compound 20r, (R)-1-(Indolin-1-yl)-2-(2-((pyridin-3-yloxy)methyl)morpholino)ethanone] | — |  |  | 2660 nM |  |
